In ChEMBL document CHEMBL4811319, “Optimization of 1,4-bis(arylsulfonamido)naphthalene-N,N'-diacetic acids as inhibitors of Keap1-Nrf2 protein-protein interaction to suppress neuroinflammation” (Bioorg Med Chem, 2021):
Activity calls are given as the source filed them. No cut-off for these calls is given here.

Legend:
Keap1/Nrf2 [1] = target: T1, Keap1/Nrf2 (Homo sapiens, UniProt Q14145); experiment: Inhibition of recombinant human KEAP1 Kelch domain (321 to 609 residues) expressed in Escherichia coli BL21 (DE3)pLysS cells interaction with FITC-9mer Nrf2 (unknown origin) incubated for 30 mins under shaking condition by fluorescence polarization assay
[2] = target: T2, Nuclear factor erythroid 2-related factor 2 (Mus musculus) (UniProt Q60795); experiment: Activation of Nrf2 in mouse BV-2 cells assessed as increase in HO-1 mRNA level at 10 uM measured within 6 hrs by qRT-PCR analysis relative to negative control; assay type: cell-based; settings: time hrs <6
T2 sequence (whole entry): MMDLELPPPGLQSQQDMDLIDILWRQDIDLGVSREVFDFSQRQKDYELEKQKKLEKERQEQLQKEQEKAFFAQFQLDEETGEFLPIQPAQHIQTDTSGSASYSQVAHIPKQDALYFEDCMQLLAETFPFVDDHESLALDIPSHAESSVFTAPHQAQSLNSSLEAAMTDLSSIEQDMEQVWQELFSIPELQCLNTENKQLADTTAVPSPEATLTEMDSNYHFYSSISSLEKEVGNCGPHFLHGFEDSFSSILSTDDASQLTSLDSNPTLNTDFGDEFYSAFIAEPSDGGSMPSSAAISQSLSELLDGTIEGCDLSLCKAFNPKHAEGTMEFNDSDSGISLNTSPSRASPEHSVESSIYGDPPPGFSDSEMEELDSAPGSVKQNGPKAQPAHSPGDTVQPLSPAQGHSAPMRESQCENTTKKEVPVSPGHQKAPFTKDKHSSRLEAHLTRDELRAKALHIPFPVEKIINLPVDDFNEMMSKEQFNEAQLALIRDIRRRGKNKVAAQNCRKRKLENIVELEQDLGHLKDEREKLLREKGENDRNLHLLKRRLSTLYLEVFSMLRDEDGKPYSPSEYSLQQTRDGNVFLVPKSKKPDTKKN

[3] = target: T2, Nuclear factor erythroid 2-related factor 2 (Mus musculus); experiment: Activation of Nrf2 in mouse BV-2 cells assessed as increase in HO-1 mRNA level at 10 uM measured after 24 hrs by qRT-PCR analysis relative to control; assay type: cell-based; settings: filed as activator
HepG2 = experiment: Cytotoxicity against human HepG2 cells up to 50 uM by Alamar blue assay; assay type: cell-based
BV-2 [4] = experiment: Cytotoxicity against mouse BV-2 cells up to 50 uM by Alamar blue assay; assay type: cell-based
[5] = target: Keap1/Nrf2 (Homo sapiens) (UniProt Q16236+Q14145); experiment: Inhibition of Keap1-Nrf2 protein-protein interaction in human HepG2-ARE-C8 cells assessed as Nrf2 activation mediated ARE-driven luciferase activity by measuring fold change at 10 uM measured after 24 hrs by luciferase reporter gene assay; assay type: cell-based
Keap1/Nrf2 [6] = target: T1, Keap1/Nrf2; experiment: Inhibition of recombinant human KEAP1 Kelch domain (321 to 609 residues) expressed in Escherichia coli BL21 (DE3)pLysS cells interaction with FITC-9mer Nrf2 (unknown origin) incubated for 30 mins under shaking condition by TR-FRET assay
[7] = target: T2, Nuclear factor erythroid 2-related factor 2 (Mus musculus); experiment: Activation of Nrf2 in mouse BV-2 cells assessed as upregulation of HO-1 protein expression at 20 uM measured after 24 hrs by Western blot analysis; assay type: cell-based; settings: filed as activator
[8] = target: T2, Nuclear factor erythroid 2-related factor 2 (Mus musculus); experiment: Activation of Nrf2 in mouse BV-2 cells assessed as upregulation of NQO-1 protein expression at 20 uM measured after 24 hrs by Western blot analysis; assay type: cell-based; settings: filed as activator
[9] = target: T2, Nuclear factor erythroid 2-related factor 2 (Mus musculus); experiment: Activation of Nrf2 in mouse BV-2 cells assessed as increase in NQO-1 mRNA level at 10 uM measured after 6 hrs by qRT-PCR analysis relative to control; assay type: cell-based; settings: filed as activator
[10] = target: T2, Nuclear factor erythroid 2-related factor 2 (Mus musculus); experiment: Activation of Nrf2 in mouse BV-2 cells assessed as increase in NQO-1 mRNA level at 10 uM measured after 24 hrs by qRT-PCR analysis relative to control; assay type: cell-based; settings: filed as activator
[11] = target: T2, Nuclear factor erythroid 2-related factor 2 (Mus musculus); experiment: Activation of Nrf2 in mouse BV-2 cells assessed as increase in HO-1 mRNA level at 1 to 10 uM measured up to 24 hrs by qRT-PCR analysis relative to control; assay type: cell-based
[12] = target: T2, Nuclear factor erythroid 2-related factor 2 (Mus musculus); experiment: Activation of Nrf2 in mouse BV-2 cells assessed as increase in NQO-1 mRNA level measured after 6 to 24 hrs by qRT-PCR analysis; assay type: cell-based; settings: filed as activator, dose 1-10 µM, time 6-24 hrs
[13] = target: T2, Nuclear factor erythroid 2-related factor 2 (Mus musculus); experiment: Activation of Nrf2 in mouse BV-2 cells assessed as increase in NQO-1 mRNA level at 1 to 10 uM by qRT-PCR analysis; assay type: cell-based; settings: filed as activator, dose 1-10 µM, time 6-24 hrs
[14] = target: T2, Nuclear factor erythroid 2-related factor 2 (Mus musculus); experiment: Activation of Nrf2 in mouse BV-2 cells assessed as upregulation of HO-1 protein expression at 10 uM measured after 24 hrs by Western blot analysis relative to control; assay type: cell-based; settings: filed as activator
[15] = target: T2, Nuclear factor erythroid 2-related factor 2 (Mus musculus); experiment: Activation of Nrf2 in mouse BV-2 cells assessed as upregulation of NQO-1 protein expression at 10 uM measured after 24 hrs by Western blot analysis relative to control; assay type: cell-based; settings: filed as activator
[16] = target: T2, Nuclear factor erythroid 2-related factor 2 (Mus musculus); experiment: Activation of Nrf2 in mouse BV-2 cells assessed as upregulation of HO-1 protein expression measured after 24 hrs by Western blot analysis; assay type: cell-based; settings: filed as activator
[17] = target: T2, Nuclear factor erythroid 2-related factor 2 (Mus musculus); experiment: Activation of Nrf2 in mouse BV-2 cells assessed as upregulation of NQO-1 protein expression measured after 24 hrs by Western blot analysis; assay type: cell-based; settings: filed as activator
[18] = target: T2, Nuclear factor erythroid 2-related factor 2 (Mus musculus); experiment: Activation of Nrf2 in mouse BV-2 cells assessed as increase in translocation of Nrf2 into nucleus at 10 uM measured after 6 to 24 hrs by […]; assay type: cell-based; settings: filed as activator, time 6-24 hrs
[19] = target: T2, Nuclear factor erythroid 2-related factor 2 (Mus musculus); experiment: Activation of Nrf2 in mouse BV-2 cells assessed as increase in DNA binding activity at 10 uM measured after 6 hrs by spectrophotometric analysis relative to control; assay type: cell-based; settings: filed as activator
[20] = target: T2, Nuclear factor erythroid 2-related factor 2 (Mus musculus); experiment: Activation of Nrf2 in mouse BV-2 cells assessed as increase in DNA binding activity at 10 uM measured after 24 hrs by spectrophotometric analysis relative to control; assay type: cell-based; settings: filed as activator
BV-2 [21] = experiment: Upregulation of HO-1 in mouse BV-2 cells transfected with Nrf2 shRNA at 10 uM measured after 24 hrs by qPCR analysis; assay type: functional, cell-based
BV-2 [22] = experiment: Upregulation of NQO-1 in mouse BV-2 cells transfected with Nrf2 shRNA at 10 uM measured after 24 hrs by qPCR analysis; assay type: functional, cell-based
BV-2 [23] = experiment: Antiinflammatory activity in mouse BV-2 cells assessed as suppression of LPS-induced […] mRNA expression at 10 uM measured up to 24 hrs by qRT-PCR analysis; assay type: functional, cell-based
BV-2 [24] = experiment: Antiinflammatory activity in mouse BV-2 cells assessed as suppression of LPS-induced […] protein expression at 10 uM measured up to 24 hrs by ELISA; assay type: functional, cell-based
BV-2 [25] = experiment: Antiinflammatory activity in mouse BV-2 cells assessed as suppression of LPS-induced IL-6 mRNA expression at 10 uM measured up to 24 hrs by qRT-PCR analysis; assay type: functional, cell-based
BV-2 [26] = experiment: Antiinflammatory activity in mouse BV-2 cells assessed as suppression of LPS-induced IL-6 protein expression at 10 uM measured up to 24 hrs by ELISA; assay type: functional, cell-based
BV-2 [27] = experiment: Antiinflammatory activity in mouse BV-2 cells assessed as suppression of LPS-induced TNF-alpha mRNA expression at 10 uM measured up to 24 hrs by qRT-PCR analysis; assay type: functional, cell-based
BV-2 [28] = experiment: Antiinflammatory activity in mouse BV-2 cells assessed as suppression of LPS-induced TNF-alpha protein expression at 10 uM measured up to 24 hrs by ELISA; assay type: functional, cell-based

T1 sequence (Q16236 whole entry, the tested form may be a part): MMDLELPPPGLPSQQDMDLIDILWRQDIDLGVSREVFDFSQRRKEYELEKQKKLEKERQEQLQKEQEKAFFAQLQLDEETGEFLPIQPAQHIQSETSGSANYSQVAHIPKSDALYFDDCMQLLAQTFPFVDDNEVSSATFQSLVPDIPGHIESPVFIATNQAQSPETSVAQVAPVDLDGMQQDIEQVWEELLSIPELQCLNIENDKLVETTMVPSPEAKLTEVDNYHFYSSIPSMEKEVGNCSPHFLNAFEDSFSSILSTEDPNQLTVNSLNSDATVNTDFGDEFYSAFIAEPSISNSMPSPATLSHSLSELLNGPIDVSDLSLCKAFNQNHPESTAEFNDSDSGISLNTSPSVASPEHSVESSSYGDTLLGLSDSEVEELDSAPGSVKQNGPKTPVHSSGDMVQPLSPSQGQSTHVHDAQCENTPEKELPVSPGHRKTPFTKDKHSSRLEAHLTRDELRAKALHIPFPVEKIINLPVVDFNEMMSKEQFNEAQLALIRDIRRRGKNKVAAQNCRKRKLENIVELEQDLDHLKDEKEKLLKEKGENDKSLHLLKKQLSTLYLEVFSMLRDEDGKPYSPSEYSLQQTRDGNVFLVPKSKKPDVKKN
T1 sequence (Q14145 whole entry, the tested form may be a part): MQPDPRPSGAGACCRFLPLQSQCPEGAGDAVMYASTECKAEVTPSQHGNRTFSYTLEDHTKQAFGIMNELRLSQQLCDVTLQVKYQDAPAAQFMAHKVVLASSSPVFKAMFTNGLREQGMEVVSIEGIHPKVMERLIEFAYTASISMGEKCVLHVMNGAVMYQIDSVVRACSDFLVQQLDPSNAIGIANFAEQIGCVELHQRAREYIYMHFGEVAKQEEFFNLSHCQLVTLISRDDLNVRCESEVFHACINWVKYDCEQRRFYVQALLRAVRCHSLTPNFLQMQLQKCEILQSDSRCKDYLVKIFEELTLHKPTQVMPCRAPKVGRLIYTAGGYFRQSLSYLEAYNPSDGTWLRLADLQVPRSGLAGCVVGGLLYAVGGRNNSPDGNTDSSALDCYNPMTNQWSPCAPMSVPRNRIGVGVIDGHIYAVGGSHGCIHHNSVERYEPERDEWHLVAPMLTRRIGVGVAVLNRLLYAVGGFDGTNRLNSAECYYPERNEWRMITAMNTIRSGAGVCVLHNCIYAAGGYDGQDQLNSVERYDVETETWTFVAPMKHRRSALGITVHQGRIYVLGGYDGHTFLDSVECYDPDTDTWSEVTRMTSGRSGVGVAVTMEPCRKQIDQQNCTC
Chain of Keap1/Nrf2 (Homo sapiens) (Q14145 whole entry, looked up, the tested form may be a part): as the sequence (Q14145 whole entry, the tested form may be a part) above
Chain of Keap1/Nrf2 (Homo sapiens) (Q16236 whole entry, looked up, the tested form may be a part): as the sequence (Q16236 whole entry, the tested form may be a part) above

O=C(O)CN(c1ccc(N(CC(=O)O)S(=O)(=O)c2ccc3c(c2)CCO3)c2ccccc12)S(=O)(=O)c1ccc2c(c1)CCO2
IC50 (Keap1/Nrf2 [1]): 164 nM
fold change (FC) [2]: < 2
fold change (FC) [3]: 4
Activity (HepG2): Non-Toxic
Activity (BV-2 [4]): Non-Toxic

CS(=O)(=O)Nc1ccc(S(=O)(=O)N(CC(=O)O)c2ccc(N(CC(=O)O)S(=O)(=O)c3ccc(NS(C)(=O)=O)cc3)c3ccccc23)cc1
IC50 (Keap1/Nrf2 [1]): 194 nM

O=C(O)CN(c1ccc(N(CC(=O)O)S(=O)(=O)c2ccc3c(c2)OCO3)c2ccccc12)S(=O)(=O)c1ccc2c(c1)OCO2
fold change (FC) [5]: > 2
IC50 (Keap1/Nrf2 [1]): 149 nM
fold change (FC) [2]: < 2
Activity (HepG2): Non-Toxic
Activity (BV-2 [4]): Non-Toxic

O=S(=O)(c1ccc2c(c1)OCCO2)N(Cc1nnn[nH]1)c1ccc(N(Cc2nnn[nH]2)S(=O)(=O)c2ccc3c(c2)OCCO3)c2ccccc12
IC50 (Keap1/Nrf2 [1]): 93.5 nM
IC50 (Keap1/Nrf2 [6]): 7.2 nM
fold change (FC) [2]: < 2
Activity (HepG2): Non-Toxic
Activity (BV-2 [4]): Non-Toxic

O=C(O)CN(c1ccc(N(CC(=O)O)S(=O)(=O)c2ccc(C(F)(F)F)cc2)c2ccccc12)S(=O)(=O)c1ccc(C(F)(F)F)cc1
IC50 (Keap1/Nrf2 [1]): 384 nM

O=S(=O)(c1ccc(C(F)(F)F)cc1)N(Cc1nnn[nH]1)c1ccc(N(Cc2nnn[nH]2)S(=O)(=O)c2ccc(C(F)(F)F)cc2)c2ccccc12
IC50 (Keap1/Nrf2 [1]): 302 nM

COc1ccc(S(=O)(=O)N(Cc2nnn[nH]2)c2ccc(N(Cc3nnn[nH]3)S(=O)(=O)c3ccc(OC)cc3)c3ccccc23)cc1
IC50 (Keap1/Nrf2 [1]): 96.7 nM
IC50 (Keap1/Nrf2 [6]): 10.8 nM

O=C(O)CN(c1ccc(N(CC(=O)O)S(=O)(=O)c2ccc(NC(=O)C(F)(F)F)cc2)c2ccccc12)S(=O)(=O)c1ccc(NC(=O)C(F)(F)F)cc1
IC50 (Keap1/Nrf2 [1]): 126 nM

O=C(O)CN(c1ccc(N(CC(=O)O)S(=O)(=O)c2ccc(N3C(=O)c4ccccc4C3=O)cc2)c2ccccc12)S(=O)(=O)c1ccc(N2C(=O)c3ccccc3C2=O)cc1
IC50 (Keap1/Nrf2 [1]): 82 nM
IC50 (Keap1/Nrf2 [6]): 11.5 nM

COc1ccc(S(=O)(=O)N(CC(=O)O)c2ccc(N(CC(=O)O)S(=O)(=O)c3ccc(OC)cc3Br)c3ccccc23)c(Br)c1
IC50 (Keap1/Nrf2 [1]): 184 nM

CN(C)C=O
Activity [7]: Active
Activity [8]: Active

O=C(O)CN(c1ccc(N(CC(=O)O)S(=O)(=O)c2ccc3c(c2)CCCO3)c2ccccc12)S(=O)(=O)c1ccc2c(c1)CCCO2
IC50 (Keap1/Nrf2 [1]): 146 nM
fold change (FC) [2]: < 2
fold change (FC) [9]: 4
Activity (HepG2): Non-Toxic
Activity (BV-2 [4]): Non-Toxic

O=C(O)CN(c1ccc(N(CC(=O)O)S(=O)(=O)c2ccc(Br)cc2)c2ccccc12)S(=O)(=O)c1ccc(Br)cc1
IC50 (Keap1/Nrf2 [1]): 235 nM

O=C(O)CN(c1ccc(N(CC(=O)O)S(=O)(=O)c2ccc3c(c2)OCCO3)c2ccccc12)S(=O)(=O)c1ccc2c(c1)OCCO2
IC50 (Keap1/Nrf2 [1]): 120 nM
IC50 (Keap1/Nrf2 [6]): 31.3 nM
fold change (FC) [2]: < 2
Activity (HepG2): Non-Toxic
Activity (BV-2 [4]): Non-Toxic

O=C(O)CN(c1ccc(N(CC(=O)O)S(=O)(=O)c2cc3c(cc2Cl)OCCO3)c2ccccc12)S(=O)(=O)c1cc2c(cc1Cl)OCCO2
fold change (FC) [5]: > 2
IC50 (Keap1/Nrf2 [1]): 144 nM
IC50 (Keap1/Nrf2 [6]): 8.9 nM
fold change (FC) [2]: < 2
fold change (FC) [9]: 3
fold change (FC) [10]: 18
fold change (FC) [11]: < 2
Activity [12]: Dose-Dependent Effect
Activity [13]: Tde
fold change (FC) [14]: 2
fold change (FC) [15]: 3
Activity [16]: Dose-Dependent Effect
Activity [17]: Dose-Dependent Effect
Activity (HepG2): Non-Toxic
Activity (BV-2 [4]): Non-Toxic
Activity [18]: Active
fold change (FC) [19]: 3
fold change (FC) [20]: 3
Activity (BV-2 [21]): inactive
Activity (BV-2 [22]): inactive
Activity (BV-2 [23]): Active
Activity (BV-2 [24]): Active
Activity (BV-2 [25]): Active
Activity (BV-2 [26]): Active
Activity (BV-2 [27]): Active
Activity (BV-2 [28]): Active
